We go through 1 molecule from paper PMC3731256, “Optimization of Substituted 6-Salicyl-4-Anilinoquinazoline Derivatives as Dual EGFR/HER2 Tyrosine Kinase Inhibitors” (PLoS ONE, 2013).

One data set concerns the target T1, VEGFR2 (Homo sapiens, UniProt P35968).
T1 construct: The cytoplasmic domain of vascular endothelial growth factor receptor 2 (VEGFR2); purchased Millipore Corp
Description: Tyrosine kinase profiling (Alphascreen), VEGFR2. Conditions: ATP concentration = Km. The format is biochemical. The protocol: (§1) The cytoplasmic domain of vascular endothelial growth factor receptor 2 (VEGFR2), platelet-derived growth factor receptor α (PDGFRα), cSRC were purchased from Millipore Corp. Assays for 3 tyrosine kinases were performed in 384 well plates using the Alphascreen® system (PerkinElmer) at room temperature. Enzyme reactions were performed in 50 mM Tris–HCl, pH7.5, 5 mM MnCl2, 5 mM MgCl2, 0.01% Tween-20, 2 mM dithiothreitol and 0.1 μg/ml biotinylated poly-GluTyr (4:1) containing optimized concentration of enzyme and ATP as described below.
(§2) Prior to the kinase reaction, compound and enzyme were incubated for 5 min at room temperature. The reactions were initiated by adding ATP. After the reaction period as described below at room temperature, the reactions were stopped by the addition of 25 μl of 100 mM EDTA, 10 μg/ml Alphascreen streptavidin donor beads and 10 μg/ml acceptor beads described below in 62.5 mM HEPES, pH 7.4, 250 mM NaCl, and 0.1% BSA. Plates were incubated in the dark for more than 12 h and then read by EnVision 2102 Multilabel Reader (PerkinElmer). The well containing substrate and enzyme without compound was used as total reaction control. […]
For orientation: Bead proximity is the source of the signal in Alpha formats.

In the next data set the target is T2, PDGFRα (Homo sapiens, UniProt P16234).
T2 construct: The cytoplasmic domain of vascular endothelial growth factor receptor 2 (VEGFR2), platelet-derived growth factor receptor α (PDGFRα); purchased Millipore Corp
Description: Tyrosine kinase profiling (Alphascreen), PDGFRα. The format is biochemical. The following applies: ATP concentration = Km. Here is the method:
as §1, §2

The target in a further data set is T3, CDK2/CycA (Homo sapiens, UniProt P24941).
T3 construct: 6His (C); made in house; host or cells: baculovirus expression system
Kind of data set: Serine/threonine kinase profiling ([γ-32P] ATP), CDK2. It is filed as biochemical. The protocol: (§3) Assays for 4 serine/threonine kinases using radio labeled [γ-^32P] ATP (GE Healthcare, Piscataway, NJ) were performed in 96 well plates. Mitogen-activated protein kinase p38α (p38α), was expressed as N-terminal FLAG-tagged protein using a baculovirus expression system. Aurora-A and -B were expressed as N-terminal 6xHis tagged protein using a baculovirus expression system. CDK2/CycA was expressed as C-terminal 6His-tagged CDK2, and N-terminal GST-tagged Cyclin A protein using a baculovirus expression system.
(§4) The reaction conditions were optimized for each kinase: p38α (100 ng/well of enzyme, 1 μg/well of MBP (Wako Pure Chemical Ind., Osaka, Japan), 0.1 μCi/well of [γ-^32P] ATP, 60 min reaction at 30 ℃); Aurora-A and -B (50 ng/well of enzyme, 30 μM of Aurora substrate peptide, 0.2 μCi/well of [γ-^32P] ATP, 60 min reaction at room temperature); CDK2/CycA (1.8 mUnits/well of enzyme, 1 μg/well of Histone H1 (Calbiochem), 0.2 μCi/well of [γ-^32P] ATP, 20 min reaction at room temperature).
(§5) All the four enzyme reactions were performed in 25 mM HEPES, pH 7.5, 10 mM magnesium acetate, 1 mM dithiothreitol and 0.5 μM ATP containing optimized concentration of enzyme, substrate and radiolabeled ATP as described above in a total volume of 50 μl. […] The radioactivity was counted by a TopCount scintillation counter (PerkinElmer).

A further data set deals with T4, human HER2 (Homo sapiens, UniProt P04626).
T4 construct: The cytoplasmic domain (amino acids 676-1255) of human HER2; FLAG (DYKDDDD) (N); made in house
Description: HER2 kinase assay ([γ-32P] ATP, poly-Glu-Tyr). It is filed as biochemical. Conditions: phosphorylation of poly-Glu-Tyr copolymer; mean, >1 determination; read-out: Enzyme activity IC50 against HER2 kinase. The protocol:
The expressed HER2 kinase and EGFR kinase were purified by anti-FLAG M2 affinity gel (Sigma-Aldrich, USA). The HER2 and EGFR kinase assays were performed using radiolabeled [γ-^32P] ATP (GEHealthcare, USA) in 96-well plates. The kinase reactions were performed in 50 mmol/L Tris-HCl, pH7.5, 5 mmol/L MnCl2, 0.01% Tween-20 and 2 mmol/L DTT containing 0.9 μCi of [γ-^32P] ATP per reaction, 50 μmol/L ATP, 5 μg/mL poly-Glu-Tyr (4:1) and 0.25 μg/mL of purified Her2 or EGFR cytoplasmic domain in a total volume of 50 μL. […] Kinase reactions were initiated by adding ATP. After the kinase reaction incubated for 10 minutes at room temperature, reactions were terminated by the addition of 10% (final concentration) trichloroacetic acid. The [γ-^32P]-phosphorylated proteins were filtered in a harvest plate (Millipore, USA) with a cell harvester (PerkinElmer, USA) and washed free of [γ-^32P] ATP with 3% phosphoric acid. The plates were dried, followed by the addition of 25 μL of MicroScintO (PerkinElmer, USA). Radioactivity was counted by a Topcount scintillation counter (PerkinElmer, USA).

In data set [1] the test system is several key kinases close to EGFR/HER2. Description: Kinase selectivity profile. It is filed as biochemical. Conditions: versus EGFR/HER2. Here is the method:
as §3, §1

The target of a further data set is T5, Aurora B (Homo sapiens, UniProt Q96GD4).
T5 construct: 6xHis (N); made in house; host or cells: baculovirus expression system
Kind of data set: Serine/threonine kinase profiling ([γ-32P] ATP), Aurora B. It is filed as biochemical. Conditions: ATP concentration = Km. Here is the method: as §3, §4, §5

T5 sequence (Q96GD4 whole entry): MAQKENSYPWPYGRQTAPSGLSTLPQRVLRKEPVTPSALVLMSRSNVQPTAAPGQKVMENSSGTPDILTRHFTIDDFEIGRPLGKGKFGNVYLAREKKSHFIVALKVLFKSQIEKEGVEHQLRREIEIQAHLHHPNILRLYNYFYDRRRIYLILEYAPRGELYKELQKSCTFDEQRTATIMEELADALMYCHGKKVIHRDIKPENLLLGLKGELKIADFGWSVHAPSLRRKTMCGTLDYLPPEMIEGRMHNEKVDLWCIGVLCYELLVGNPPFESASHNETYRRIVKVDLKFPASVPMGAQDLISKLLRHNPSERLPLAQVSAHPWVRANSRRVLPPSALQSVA
T2 sequence (P16234 550-1089 limits assumed, species assumed): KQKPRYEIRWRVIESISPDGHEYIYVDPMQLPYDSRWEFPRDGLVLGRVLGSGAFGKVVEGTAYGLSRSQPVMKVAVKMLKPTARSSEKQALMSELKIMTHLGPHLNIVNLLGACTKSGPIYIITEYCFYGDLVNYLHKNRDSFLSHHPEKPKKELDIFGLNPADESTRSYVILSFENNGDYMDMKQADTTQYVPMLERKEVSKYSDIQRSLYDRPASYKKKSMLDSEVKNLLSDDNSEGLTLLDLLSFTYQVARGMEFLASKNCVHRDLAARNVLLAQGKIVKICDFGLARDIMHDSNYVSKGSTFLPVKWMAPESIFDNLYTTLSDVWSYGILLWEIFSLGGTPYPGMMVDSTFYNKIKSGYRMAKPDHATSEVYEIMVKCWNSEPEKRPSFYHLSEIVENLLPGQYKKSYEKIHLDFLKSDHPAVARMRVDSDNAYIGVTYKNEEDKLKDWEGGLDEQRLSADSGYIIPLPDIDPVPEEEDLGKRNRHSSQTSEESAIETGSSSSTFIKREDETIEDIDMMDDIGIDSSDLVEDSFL
T4 sequence (P04626 676-1255): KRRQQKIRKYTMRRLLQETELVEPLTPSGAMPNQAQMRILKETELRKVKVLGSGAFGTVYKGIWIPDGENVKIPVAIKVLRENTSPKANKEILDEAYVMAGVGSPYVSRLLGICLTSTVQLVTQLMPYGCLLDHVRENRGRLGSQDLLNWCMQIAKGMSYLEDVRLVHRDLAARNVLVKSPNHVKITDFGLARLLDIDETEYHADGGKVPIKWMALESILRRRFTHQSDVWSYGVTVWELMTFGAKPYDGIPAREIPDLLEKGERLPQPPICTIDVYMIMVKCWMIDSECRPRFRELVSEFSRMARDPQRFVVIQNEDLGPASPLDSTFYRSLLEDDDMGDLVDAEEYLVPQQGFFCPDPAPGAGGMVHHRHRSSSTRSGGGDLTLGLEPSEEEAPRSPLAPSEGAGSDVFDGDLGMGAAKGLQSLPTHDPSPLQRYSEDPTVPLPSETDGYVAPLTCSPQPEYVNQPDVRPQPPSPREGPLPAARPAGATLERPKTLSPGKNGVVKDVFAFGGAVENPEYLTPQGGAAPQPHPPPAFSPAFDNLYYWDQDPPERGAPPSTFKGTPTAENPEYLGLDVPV
T1 sequence (P35968 786-1356 limits assumed, species assumed): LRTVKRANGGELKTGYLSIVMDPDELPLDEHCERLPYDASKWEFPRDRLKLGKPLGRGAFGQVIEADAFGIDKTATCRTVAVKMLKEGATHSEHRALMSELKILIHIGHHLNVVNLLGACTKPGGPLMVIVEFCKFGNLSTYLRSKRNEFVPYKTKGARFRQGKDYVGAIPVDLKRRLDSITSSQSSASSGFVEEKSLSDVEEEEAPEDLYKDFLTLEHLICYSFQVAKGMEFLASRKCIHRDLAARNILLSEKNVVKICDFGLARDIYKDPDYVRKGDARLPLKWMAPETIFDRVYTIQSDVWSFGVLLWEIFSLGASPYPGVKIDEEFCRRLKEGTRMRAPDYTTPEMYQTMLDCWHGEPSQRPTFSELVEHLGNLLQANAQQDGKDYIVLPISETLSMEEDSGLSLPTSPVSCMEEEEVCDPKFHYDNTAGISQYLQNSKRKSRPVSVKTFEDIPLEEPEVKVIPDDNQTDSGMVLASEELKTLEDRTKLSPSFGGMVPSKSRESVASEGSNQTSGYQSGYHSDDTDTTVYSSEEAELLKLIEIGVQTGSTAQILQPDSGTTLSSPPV

Molecule `O=C(Nc1ccc2ncnc(Nc3cccc(Br)c3)c2c1)c1ccc(C(F)(F)F)cc1O` [Compound 21, N-(4-(3-bromophenylamino)quinazolin-6-yl)-2-hydroxy-4-(trifluoromethyl)benzamide] came in with a melting point of 289 to 291 °C. On VEGFR2, this molecule came in with a half-maximal inhibitory concentration (IC50) of 29.2 ± 0.98 µM. On PDGFRα, this molecule displayed an IC50 of 17.3 ± 0.06 µM. The same molecule yielded an IC50 at CDK2/CycA (ATP concentration = Km) of 3.5 µM. Besides, on CDK2/CycA (converted from IC50 by online calculator), the “pIC50 CDK2” value was 5.46. Also, the IC50 at human HER2 worked out at 0.096 ± 0.004 µM. Besides, the “selectivity against major of other kinases screened” value in data set [1] is listed as “more than 100 fold”. Besides, the IC50 at Aurora B worked out at 63.7 ± 1.02 µM.

As usually defined, the IC50 is the concentration needed to halve the response being measured. As a reminder, the melting point is the temperature, or range, at which the solid turns liquid.
